From patent US10081624B2, “Heterocyclic compound” (Takeda Pharmaceutical Company Limited, priority 2014, dated 2018) come the findings set out here.

Each structure is given as a SMILES string.

The target in one assay is T1, HDAC1 enzyme (Homo sapiens, UniProt Q13547).
T1 construct: prepared by transducing full length HDAC1 and HDAC6 genes into Sf-9 insect cells; GST; purchased SignalChem; host or cells: Sf-9 insect cells
As to the kind of experiment: HDAC1 enzyme inhibitory assay (HDAC-Glo I/II Assay kit). In kind it is biochemical. The settings on record: 1 μM test compound; read-out: HDAC1 inhibitory rate (%) (1 μM). Summed up: (§1)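 Full-length GST-purified HDAC1 or HDAC6 (Sf-9 expressed) preincubated 60 min at room temperature with compound in Tris-HCl pH 7.5 buffer with glutathione and Tween-20. HDAC-Glo substrate-developer added, 20 min at room temperature, then luminescence read; inhibition relative to no-enzyme wells as 100%.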

Another assay concerns the target T2, HDAC6 enzyme (Homo sapiens, UniProt Q9UBN7).
T2 construct: prepared by transducing full length HDAC1 and HDAC6 genes into Sf-9 insect cells; GST; purchased SignalChem; host or cells: Sf-9 insect cells
T2 sequence (Q9UBN7 1-1215): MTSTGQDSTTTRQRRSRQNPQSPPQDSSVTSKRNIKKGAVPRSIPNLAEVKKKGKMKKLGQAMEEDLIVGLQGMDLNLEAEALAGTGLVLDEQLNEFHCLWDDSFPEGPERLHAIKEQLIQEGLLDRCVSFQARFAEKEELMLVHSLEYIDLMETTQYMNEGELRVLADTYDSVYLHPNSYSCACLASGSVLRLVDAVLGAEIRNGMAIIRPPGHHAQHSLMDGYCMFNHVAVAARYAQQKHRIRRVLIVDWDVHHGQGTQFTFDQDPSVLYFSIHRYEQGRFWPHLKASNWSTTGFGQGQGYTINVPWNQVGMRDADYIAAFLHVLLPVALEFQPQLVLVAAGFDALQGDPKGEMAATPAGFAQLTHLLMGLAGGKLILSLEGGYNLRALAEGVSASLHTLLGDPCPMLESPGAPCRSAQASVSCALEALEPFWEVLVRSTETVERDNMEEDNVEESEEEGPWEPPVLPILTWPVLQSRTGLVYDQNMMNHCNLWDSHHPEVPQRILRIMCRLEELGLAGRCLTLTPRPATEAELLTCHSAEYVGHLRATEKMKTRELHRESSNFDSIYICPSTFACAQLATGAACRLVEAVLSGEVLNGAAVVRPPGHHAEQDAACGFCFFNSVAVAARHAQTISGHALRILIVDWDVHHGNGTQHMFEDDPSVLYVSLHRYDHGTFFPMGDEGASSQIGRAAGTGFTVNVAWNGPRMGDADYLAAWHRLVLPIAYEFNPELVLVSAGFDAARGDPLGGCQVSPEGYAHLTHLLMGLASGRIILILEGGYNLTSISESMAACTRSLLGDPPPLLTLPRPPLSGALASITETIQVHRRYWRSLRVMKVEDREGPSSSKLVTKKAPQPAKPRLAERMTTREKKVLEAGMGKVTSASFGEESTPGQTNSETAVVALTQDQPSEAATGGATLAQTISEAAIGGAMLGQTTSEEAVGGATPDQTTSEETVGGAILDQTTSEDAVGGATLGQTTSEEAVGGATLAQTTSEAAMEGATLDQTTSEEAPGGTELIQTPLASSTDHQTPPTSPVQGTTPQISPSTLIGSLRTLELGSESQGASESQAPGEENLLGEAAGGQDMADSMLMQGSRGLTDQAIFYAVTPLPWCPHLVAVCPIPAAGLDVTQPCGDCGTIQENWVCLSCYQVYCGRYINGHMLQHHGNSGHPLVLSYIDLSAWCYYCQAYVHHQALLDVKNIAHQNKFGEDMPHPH
As to the kind of experiment: HDAC6 enzyme inhibitory assay (HDAC-Glo I/II Assay kit). Particulars: 1 μM test compound; read-out: HDAC6 inhibitory rate (%) (1 μM). The assay is classed as biochemical. Summed up:
as §1

T1 sequence (Q13547 whole entry): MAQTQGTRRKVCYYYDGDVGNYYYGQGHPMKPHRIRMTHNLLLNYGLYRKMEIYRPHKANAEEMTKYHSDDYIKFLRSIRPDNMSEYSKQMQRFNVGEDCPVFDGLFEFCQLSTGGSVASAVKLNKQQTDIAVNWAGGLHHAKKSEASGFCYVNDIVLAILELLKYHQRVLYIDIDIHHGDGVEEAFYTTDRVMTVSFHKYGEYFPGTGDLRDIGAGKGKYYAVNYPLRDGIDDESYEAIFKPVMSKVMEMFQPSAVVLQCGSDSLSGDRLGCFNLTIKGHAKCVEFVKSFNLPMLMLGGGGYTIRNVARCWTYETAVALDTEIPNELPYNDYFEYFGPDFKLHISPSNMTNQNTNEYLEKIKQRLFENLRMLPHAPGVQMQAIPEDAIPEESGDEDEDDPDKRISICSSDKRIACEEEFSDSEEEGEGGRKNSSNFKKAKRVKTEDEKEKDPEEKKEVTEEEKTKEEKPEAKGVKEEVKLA

With `O=C(NCC1CN(C(=O)c2ccccc2)CCN1C(=O)c1ccccc1)c1ccc(-c2noc(C(F)(F)F)n2)cc1` (stereo not shown) [Example 165, N-((1,4-dibenzoylpiperazin-2-yl)methyl)-4-(5-(trifluoromethyl)-1,2,4-oxadiazol-3-yl)benzamide], the inhibition at 1 µM was 17% at HDAC1 enzyme and 99% on HDAC6 enzyme.

Turning to `O=C(NCC1Cc2ccccc2N1C(=O)c1ccccc1)c1ccc(-c2noc(C(F)(F)F)n2)cc1` (stereo not shown) [Example 167, N-((1-benzoyl-2,3-dihydro-1H-indol-2-yl)methyl)-4-(5-(trifluoromethyl)-1,2,4-oxadiazol-3-yl)benzamide], the values for the inhibition at 1 µM on HDAC1 enzyme and on HDAC6 enzyme were 15% and 93%, respectively.

Turning to `O=C(NCC1CCc2ccccc2N1C(=O)C1CC1)c1ccc(-c2noc(C(F)(F)F)n2)cc1` (stereo not shown) [Example 172, N-((1-(cyclopropylcarbonyl)-1,2,3,4-tetrahydroquinolin-2-yl)methyl)-4-(5-(trifluoromethyl)-1,2,4-oxadiazol-3-yl)benzamide], the inhibition at 1 µM on HDAC1 enzyme came to 8%; at HDAC6 enzyme it was 95%.

For the compound `O=C(NCC1CCc2ccccc2N1C(=O)c1ccccc1)c1ccc(-c2noc(C(F)(F)F)n2)cc1` (stereo not shown) [Example 173, N-((1-benzoyl-1,2,3,4-tetrahydroquinolin-2-yl)methyl)-4-(5-(trifluoromethyl)-1,2,4-oxadiazol-3-yl)benzamide], the inhibition at 1 µM at HDAC1 enzyme was 16%; at HDAC6 enzyme it was 90%.

For the compound `O=C(NCC1Cc2ccccc2CN1C(=O)c1ccccc1)c1ccc(-c2noc(C(F)(F)F)n2)cc1` (stereo not shown) [Example 175, N-((2-benzoyl-1,2,3,4-tetrahydroisoquinolin-3-yl)methyl)-4-(5-(trifluoromethyl)-1,2,4-oxadiazol-3-yl)benzamide], the inhibition at 1 µM was 18% on HDAC1 enzyme and 97% on HDAC6 enzyme.

Regarding `O=C(NCC1COCCN1C(=O)c1ccccc1)c1ccc(-c2noc(C(F)(F)F)n2)cc1F` (stereo not shown) [Example 177, N-((4-benzoylmorpholin-3-yl)methyl)-2-fluoro-4-(5-(trifluoromethyl)-1,2,4-oxadiazol-3-yl)benzamide], the inhibition at 1 µM is 27% at HDAC1 enzyme and 99% at HDAC6 enzyme.

Take `Cc1cc(-c2noc(C(F)(F)F)n2)ccc1C(=O)NCC1COCCN1C(=O)c1ccccc1` (stereo not shown) [Example 178, N-((4-benzoylmorpholin-3-yl)methyl)-2-methyl-4-(5-(trifluoromethyl)-1,2,4-oxadiazol-3-yl)benzamide]: the inhibition at 1 µM stood at 3% at HDAC1 enzyme and 24% on HDAC6 enzyme.

As to `Cc1cc(C(=O)NCC2COCCN2C(=O)c2ccccc2)ccc1-c1noc(C(F)(F)F)n1` (stereo not shown) [Example 179, N-((4-benzoylmorpholin-3-yl)methyl)-3-methyl-4-(5-(trifluoromethyl)-1,2,4-oxadiazol-3-yl)benzamide], the figures for the inhibition at 1 µM on HDAC1 enzyme and at HDAC6 enzyme were -1% and 36%, respectively.

Consider `O=C(NCC1COCCN1C(=O)c1ccccc1)c1ccc(-c2noc(C(F)(F)F)n2)cn1` (stereo not shown) [Example 181, N-((4-benzoylmorpholin-3-yl)methyl)-5-(5-(trifluoromethyl)-1,2,4-oxadiazol-3-yl)pyridine-2-carboxamide], for which the inhibition at 1 µM at HDAC1 enzyme is 29%; at HDAC6 enzyme, 97%.

As for `O=C(NCC1COCCN1C(=O)c1cc(Cl)cc(Cl)c1)c1ccc(-c2noc(C(F)(F)F)n2)cn1` (stereo not shown) [Example 182, N-((4-(3,5-dichlorobenzoyl)morpholin-3-yl)methyl)-5-(5-(trifluoromethyl)-1,2,4-oxadiazol-3-yl)pyridine-2-carboxamide], the inhibition at 1 µM at HDAC1 enzyme is 42%; on HDAC6 enzyme, 97%.

Consider `O=C(NC[C@H]1COCCN1C(=O)c1cc(Cl)cc(Cl)c1)c1ccc(-c2noc(C(F)(F)F)n2)cn1` [Example 183, N-(((3S)-4-(3,5-dichlorobenzoyl)morpholin-3-yl)methyl)-5-(5-(trifluoromethyl)-1,2,4-oxadiazol-3-yl)pyridine-2-carboxamide], for which the inhibition at 1 µM was 57% at HDAC1 enzyme and 97% at HDAC6 enzyme.

With `Cn1nc2ccccc2c1C(=O)N1CCOC[C@@H]1CNC(=O)c1ccc(-c2noc(C(F)(F)F)n2)cn1` [Example 184, N-(((3S)-4-((2-methyl-2H-indazol-3-yl)carbonyl)morpholin-3-yl)methyl)-5-(5-(trifluoromethyl)-1,2,4-oxadiazol-3-yl)pyridine-2-carboxamide], the inhibition at 1 µM came out at 77% at HDAC1 enzyme and 99% on HDAC6 enzyme.

With `Cc1oncc1C(=O)N1CCOC[C@@H]1CNC(=O)c1ccc(-c2noc(C(F)(F)F)n2)cn1` [Example 193, N-(((3S)-4-((5-methyl-1,2-oxazol-4-yl)carbonyl)morpholin-3-yl)methyl)-5-(5-(trifluoromethyl)-1,2,4-oxadiazol-3-yl)pyridine-2-carboxamide], the values for the inhibition at 1 µM at HDAC1 enzyme and on HDAC6 enzyme were 33% and 97%, respectively.

With `Cc1nonc1C(=O)N1CCOC[C@@H]1CNC(=O)c1ccc(-c2noc(C(F)(F)F)n2)cn1` [Example 194, N-(((3S)-4-((4-methyl-1,2,5-oxadiazol-3-yl)carbonyl)morpholin-3-yl)methyl)-5-(5-(trifluoromethyl)-1,2,4-oxadiazol-3-yl)pyridine-2-carboxamide], the results for the inhibition at 1 µM on HDAC1 enzyme and at HDAC6 enzyme were 36% and 97%, respectively.

Consider `Cc1nnsc1C(=O)N1CCOC[C@@H]1CNC(=O)c1ccc(-c2noc(C(F)(F)F)n2)cn1` [Example 195, N-(((3S)-4-((4-methyl-1,2,3-thiadiazol-5-yl)carbonyl)morpholin-3-yl)methyl)-5-(5-(trifluoromethyl)-1,2,4-oxadiazol-3-yl)pyridine-2-carboxamide], for which the inhibition at 1 µM worked out at 40% at HDAC1 enzyme and 98% on HDAC6 enzyme.

Regarding `O=C(NC[C@H]1COCCN1C(=O)C1(c2ccccc2)CC1)c1ccc(-c2noc(C(F)(F)F)n2)cn1` [Example 202, N-(((3S)-4-((1-phenylcyclopropyl)carbonyl)morpholin-3-yl)methyl)-5-(5-(trifluoromethyl)-1,2,4-oxadiazol-3-yl)pyridine-2-carboxamide], the inhibition at 1 µM was found to be 20% at HDAC1 enzyme and 98% at HDAC6 enzyme.

`O=C(NC[C@H]1COCCN1C(=O)C1CCCCC1)c1ccc(-c2noc(C(F)(F)F)n2)cn1` [Example 204, N-(((3S)-4-(cyclohexylcarbonyl)morpholin-3-yl)methyl)-5-(5-(trifluoromethyl)-1,2,4-oxadiazol-3-yl)pyridine-2-carboxamide]: the inhibition at 1 µM on HDAC1 enzyme is 22%; on HDAC6 enzyme, 97%.

For the compound `O=C(NC[C@H]1COCCN1C(=O)C1C2CC3CC(C2)CC1C3)c1ccc(-c2noc(C(F)(F)F)n2)cn1` (stereo partly shown) [Example 205, N-((4-(adamantan-2-ylcarbonyl)morpholin-3-yl)methy)-5-(5-(trifluoromethyl)-1,2,4-oxadiazol-3-yl)pyridine-2-carboxamide], the values for the inhibition at 1 µM on HDAC1 enzyme and on HDAC6 enzyme were 59% and 99%, respectively.

For `CC(C)(C(=O)N1CCOC[C@@H]1CNC(=O)c1ccc(-c2noc(C(F)(F)F)n2)cn1)c1ccccc1` [Example 206, N-(((3S)-4-(2-methyl-2-phenylpropanoyl)morpholin-3-yl)methyl)-5-(5-(trifluoromethyl)-1,2,4-oxadiazol-3-yl)pyridine-2-carboxamide], the results for the inhibition at 1 µM on HDAC1 enzyme and on HDAC6 enzyme were 33% and 98%, respectively.

With `O=C(NC[C@H]1COCCN1C(=O)C(F)(F)c1ccccc1)c1ccc(-c2noc(C(F)(F)F)n2)cn1` [Example 207, N-(((3S)-4-(difluoro(phenyl)acetyl)morpholin-3-yl)methyl)-5-(5-(trifluoromethyl)-1,2,4-oxadiazol-3-yl)pyridine-2-carboxamide], the inhibition at 1 µM on HDAC1 enzyme was 41%; at HDAC6 enzyme, 99%.
